The source of these data is patent US20070238146A1, “Kinetic metabolic assay for antifungal susceptibility testing” (priority 2006, published 2007).

The structures appear in SMILES notation. Where only a bound is given, the exact number is not on record here.

Common to all, as to format: cell-based, Candida albicans
Test [1] concerns planktonic C. albicans cells. The experiment in a line: CFU assay of planktonic cells after AmB treatment. To be noted: exponential phase planktonic cells. The method, then:
CFU assay. CFU were estimated for both AmB treated and untreated planktonic sample. 100 μl planktonic C. albicans cells in PBS were serially diluted in 2 ml cuvettes (catalog no. BTCUV, Biotrace Inc.). The serial dilution was 10-fold across each cuvette. The required number of serial dilutions per sample were judged based on trial and error. A volume of 100 μl from each serially diluted cuvette was spread as a separate lane on an agar plate. […] Plates were incubated at 37° C. for 24 hours. CFU were estimated from dilutions whose numbers fell in the range of 10 to 100 colonies per lane. The appropriate dilution factor was multiplied to estimate the final viable cell concentration for every sample.
AmB treatment. AmB was from Biosource International Inc. (Fungizone with 0.00205% sodium deoxycholate solubilizing agent). A standard broth dilution method was used to assess the AmB MlC of CA-1, with ATCC 24433 used as a reference strain (32). AmB treatment of planktonic cells and shear-removed biofilm was preformed in 1.5-ml centrifuge tubes. The tubes contained a total working volume of 450 μl. […] This enabled recording of absorbance data for the metabolic indicator in real time without perturbing the well contents. […]
(ii) Calculation of percent viability. Viability in terms of CFU was calculated by using the kinetic parameters estimated for each sample and the corresponding calibrations. […]

For test [2], the system named is planktonic C. albicans cells. The experiment in a line: kinetic metabolic assay (KMA, alamarBlue) of planktonic cells after 1 h AmB treatment. Here is the method: Planktonic cultures. Cultures were grown aerobically in 250-ml Erlenmeyer flasks containing 100 ml growth medium. The flasks were placed in a shaker incubator at 37° C. and 160 rpm for the desired period of growth. C. albicans grew as budding yeast under these conditions. Exponential phase cells were harvested after a 5-h growth period and stationary-phase cells at 96 h.
AmB treatment. AmB was from Biosource International Inc. (Fungizone with 0.00205% sodium deoxycholate solubilizing agent). A standard broth dilution method was used to assess the AmB MlC of CA-1, with ATCC 24433 used as a reference strain (32). AmB treatment of planktonic cells and shear-removed biofilm was preformed in 1.5-ml centrifuge tubes. The tubes contained a total working volume of 450 μl. AmB dissolved in 200 μl of 0.1 M PBS (pH 7.0), and cells resuspended in 250 μl of PBS adjusted to an optical density of 0.05 (A660) were added to the 1.5-ml tube. After more than 10 preliminary experiments, the time between recovery of the shear-removed biofilm in the petri dish and exposure to AmB was reduced to approximately 5 min. The positive controls had no AmB, and the negative controls had no cells. For AmB treatment of the basal blastospore population, each sample consisted of a 0.5-cm long section of tubing cut from the TF. Each tubing sample was positioned in the 96-well plate (Corning Inc.; Costar 3370) such that its outer wall snugly fit along the wall of the well in the 96-well plate. This enabled recording of absorbance data for the metabolic indicator in real time without perturbing the well contents. The 0.5-cm tubing samples were randomly placed in the 96-well plate in order to randomize the distribution between treated samples and untreated controls. Solution (225 μl) containing AmB in 0.1 M PBS was added to wells to completely submerge the 0.5-cm tubing during the AmB treatment phase. Untreated samples were the positive controls. Three independent TF experiments were run, generating 24 samples per AmB concentration and 61 untreated controls for the basal blastospores. Sterile tubing was used as a negative control. In every experiment, a minimum of four negative controls were used. The AmB treatment period was 1 h across all cell populations. During AmB exposure, the 1.5-m1 tubes (containing either the planktonic or shear-removed populations) and 96 -well plates (containing the basal blastospores) were placed in a shaker incubator at 37° C. and 150 rpm. […]
Kinetic curves. Kinetic data of the reduction of metabolic indicators and turbidimetric changes were recorded for both AmB treated and untreated samples. […] The kinetic assay in the 96 well format was run for 24 h at 37° C. with continuous shaking in a Synergy-HT plate reader (Biotek Inc.). […]
On the technique in general: The colour change of resazurin is a common sign of viable cells or microbes.

The subject of test [3] is C. albicans biofilm basal blastospores. The test can be described thus: KMA for in situ biofilm susceptibility testing (alamarBlue, modified medium, t-threshold). Here is the method:
Biofilm cultures. Biofilms were grown in a tubular flow cell (TF). Silicone tubing (Cole-Panmer; catalog no. EW-95802-08) with an inner diameter of 4.78 mm, an outer diameter of 6.35 mm, a wall of 0.79 mm, and a length of 60 cm constituted the biofilm-growing region of the TF. The source of growth medium for the TF was a 2-liter Erlenineyer flask. A bubble trap was placed between the Erlenmeyer flask and the TF to prevent passage of air bubbles during biofilm growth. Flow rates of 1.17 ml/min (shear rate, 109.5 s^−1) were maintained by a peristaltic pump coupled at the effluent end of the TF. The residence time for the volume of liquid contained in the tubular reactor portion of the flow system (20-cm length of tubing) was 3 min. This condition ensured that the contribution to the cell population in the TF from cells in the planktonic mode of growth (doubling time, approximately 80 min) was negligible. After sterilization by autoclaving, the entire setup was placed horizontally on a grilled shelf in an incubator at 37° C. The TF was filled with growth medium before being inoculated with cells. The inoculum was prepared from a 24-h planktonic culture at a concentration of 10^8 cells/ml in 0.1 M phosphate-buffered saline (PBS, pH 7) buffer. It was fed into the TF from the effluent end by reversing the direction of flow. Flow was then discontinued for 1 h. After the 1 -h inoculation period, flow was resumed for 36 h. At the end of this culture period, the section of tubing in which the biofilm grew was clamped at both ends and removed by cutting the tubing with a sterile blade. The liquid column was drained into a petri dish by moving the tubing to a vertical position and releasing the clamps. The tubing was then rinsed with PBS buffer equivalent to one tube volume. The fraction of biofilm collected in the petri dish by this procedure is referred to as the shear-removed biofilm. […]
AmB treatment. […] This enabled recording of absorbance data for the metabolic indicator in real time without perturbing the well contents. […]

As to `C[C@@H]1[C@H](O)[C@@H](C)/C=C/C=C/C=C/C=C/C=C/C=C/C=C/[C@H](O[C@@H]2O[C@H](C)[C@@H](O)[C@H](N)[C@@H]2O)C[C@@H]2O[C@](O)(C[C@@H](O)C[C@@H](O)[C@H](O)CC[C@@H](O)C[C@@H](O)CC(=O)O[C@H]1C)C[C@H](O)[C@H]2C(=O)O` [AmB, amphotericin B], the “AmB concentration beyond which complete killing was observed” value in test [1] is greater than 1.77 µg/mL. Further, the “AmB concentration beyond which complete killing is achieved” value in test [2] (exponential phase planktonic cells, KMA, 1 h AmB treatment) is greater than 1.77 µg/mL. In addition, the “AmB concentration up to which viability is detected” value in test [2] (modified medium, exponential-phase cells, alamarBlue, t-threshold (FIG. 5)) was 1.77 µg/mL. In test [2] (stationary phase planktonic cells, alamarBlue, t-threshold, 1 h AmB treatment (FIG. 6)), the “AmB concentration up to which cells survive” value is 3.55 µg/mL. Also, in test [2] (unmodified medium, exponential-phase cells, alamarBlue, t-threshold (FIG. 5)), the “AmB concentration up to which viability is detected (detection limit)” value amounted to 0.88 µg/mL. The “activity of basal blastospores relative to other populations” value in test [3] (AmB concentrations greater than or equal to 3.7 μg/ml, versus shear removed biofilm, stationary and exponential phase planktonic cells) is “clearly more active than the other three populations”. Also, the “AmB concentration up to which metabolic activity was exhibited” value in test [3] (basal blastospore subpopulation in situ, highest tested concentration, 1 h AmB treatment) stood at 28.26 µg/mL. Besides, the “loss of metabolic activity of basal blastospores relative to other samples” value in test [3] (lower AmB concentrations (<1.77 μg/ml)) was “greater loss of metabolic activity than the other samples”.
